Data reported in patent publication US20100120690A1, “Polypeptides Having Antimicrobial Activity and Polynucleotides Encoding Same” (Novozymes Adenium Biotech A/S, priority 2005, published 2010).

The substances below were run on Staphylococcus aureus, ATCC 29213 (assay: MIC, NCCLS/CLSI guidelines (Example 5), strain A). Settings: relative to wildtype Plectasin; average of two independent experiments.
Assay type: cell-based
Protocol: (§1) Plectasin wild-type (SEQ ID NO: 1) and several variants of Plectasin were expressed and purified. The Minimal Inhibitory Concentration (MIC) was determined to test for their antimicrobial activity following the NCCLS guidelines from CLSI (Clinical and Laboratory Standards Institute; formerly known as National Committee for Clinical and Laboratory Standards).
(§2) The peptides were tested against the following strains: • A: Staphylococcus aureus, ATCC 29213; • B: Staphylococcus aureus, ATCC 25923; • C: Staphylococcus aureus, ATCC 29737; • D: Staphylococcus aureus, MRSA ST5 (2001), multi-resistant clinical human isolate from Statens Serum Institut, Denmark; • E: Staphylococcus aureus, MRSA ST80 (2003), multi-resistant clinical human isolate from Statens Serum Institut, Denmark.
(§3) All MIC values represent an average of two independent experiments; and all results in Table 5 are expressed relative to wildtype Plectasin:
(§4) 0: >100% of Plectasin wildtype MIC; 1: 80-100% of Plectasin wildtype MIC; 2: 50-80% of Plectasin wildtype MIC; 3: <50% of Plectasin wildtype MIC.

Substance | Relative MIC, strain A
N5G + M13L: variant of Plectasin (SEQ ID NO: 1) (GFGCGGPWDEDDLQCHNHCKSIKGYKGGYCAKGGFVCKCY) | 2 (50-80% of Plectasin wildtype MIC)
N5G + M13Y + N17K: variant of Plectasin (SEQ ID NO: 1) (GFGCGGPWDEDDYQCHKHCKSIKGYKGGYCAKGGFVCKCY) | 3 (<50% of Plectasin wildtype MIC)
N5G + Q14K: variant of Plectasin (SEQ ID NO: 1) (GFGCGGPWDEDDMKCHNHCKSIKGYKGGYCAKGGFVCKCY) | 2 (50-80% of Plectasin wildtype MIC)
N5R + M13Y + N17R: variant of Plectasin (SEQ ID NO: 1) (GFGCRGPWDEDDYQCHRHCKSIKGYKGGYCAKGGFVCKCY) | 3 (<50% of Plectasin wildtype MIC)
N5S + D9A + K26R: variant of Plectasin (SEQ ID NO: 1) (GFGCSGPWAEDDMQCHNHCKSIKGYRGGYCAKGGFVCKCY) | 3 (<50% of Plectasin wildtype MIC)
N5S + D9S + M13L + Q14R + N17V + A31S: variant of Plectasin (SEQ ID NO: 1) (GFGCSGPWSEDDLRCHVHCKSIKGYKGGYCSKGGFVCKCY) | 3 (<50% of Plectasin wildtype MIC)
N5S + D9S + M13V + N17R: variant of Plectasin (SEQ ID NO: 1) (GFGCSGPWSEDDVQCHRHCKSIKGYKGGYCAKGGFVCKCY) | 3 (<50% of Plectasin wildtype MIC)
N5S + D9S: variant of Plectasin (SEQ ID NO: 1) (GFGCSGPWSEDDMQCHNHCKSIKGYKGGYCAKGGFVCKCY) | 0 (>100% of Plectasin wildtype MIC)

The substances below were run on Staphylococcus aureus, ATCC 25923 (assay: MIC, NCCLS/CLSI guidelines (Example 5), strain B). Settings: relative to wildtype Plectasin; average of two independent experiments.
Assay type: cell-based
Protocol: as §1, §2, §3, §4

Substance | Relative MIC, strain B
N5G + M13L: variant of Plectasin (SEQ ID NO: 1) (GFGCGGPWDEDDLQCHNHCKSIKGYKGGYCAKGGFVCKCY) | 3 (<50% of Plectasin wildtype MIC)
N5G + M13Y + N17K: variant of Plectasin (SEQ ID NO: 1) (GFGCGGPWDEDDYQCHKHCKSIKGYKGGYCAKGGFVCKCY) | 3 (<50% of Plectasin wildtype MIC)
N5G + Q14K: variant of Plectasin (SEQ ID NO: 1) (GFGCGGPWDEDDMKCHNHCKSIKGYKGGYCAKGGFVCKCY) | 2 (50-80% of Plectasin wildtype MIC)
N5R + M13Y + N17R: variant of Plectasin (SEQ ID NO: 1) (GFGCRGPWDEDDYQCHRHCKSIKGYKGGYCAKGGFVCKCY) | 3 (<50% of Plectasin wildtype MIC)
N5S + D9A + K26R: variant of Plectasin (SEQ ID NO: 1) (GFGCSGPWAEDDMQCHNHCKSIKGYRGGYCAKGGFVCKCY) | 3 (<50% of Plectasin wildtype MIC)
N5S + D9S + M13L + Q14R + N17V + A31S: variant of Plectasin (SEQ ID NO: 1) (GFGCSGPWSEDDLRCHVHCKSIKGYKGGYCSKGGFVCKCY) | 3 (<50% of Plectasin wildtype MIC)
N5S + D9S + M13V + N17R: variant of Plectasin (SEQ ID NO: 1) (GFGCSGPWSEDDVQCHRHCKSIKGYKGGYCAKGGFVCKCY) | 3 (<50% of Plectasin wildtype MIC)
N5S + D9S: variant of Plectasin (SEQ ID NO: 1) (GFGCSGPWSEDDMQCHNHCKSIKGYKGGYCAKGGFVCKCY) | 3 (<50% of Plectasin wildtype MIC)

These substances were tested on Staphylococcus aureus, ATCC 29737 (assay: MIC, NCCLS/CLSI guidelines (Example 5), strain C). Settings: relative to wildtype Plectasin; average of two independent experiments.
Assay type: cell-based
Protocol: as §1, §2, §3, §4

Substance | Relative MIC, strain C
N5G + M13L: variant of Plectasin (SEQ ID NO: 1) (GFGCGGPWDEDDLQCHNHCKSIKGYKGGYCAKGGFVCKCY) | 3 (<50% of Plectasin wildtype MIC)
N5G + M13Y + N17K: variant of Plectasin (SEQ ID NO: 1) (GFGCGGPWDEDDYQCHKHCKSIKGYKGGYCAKGGFVCKCY) | 3 (<50% of Plectasin wildtype MIC)
N5G + Q14K: variant of Plectasin (SEQ ID NO: 1) (GFGCGGPWDEDDMKCHNHCKSIKGYKGGYCAKGGFVCKCY) | 3 (<50% of Plectasin wildtype MIC)
N5R + M13Y + N17R: variant of Plectasin (SEQ ID NO: 1) (GFGCRGPWDEDDYQCHRHCKSIKGYKGGYCAKGGFVCKCY) | 3 (<50% of Plectasin wildtype MIC)
N5S + D9A + K26R: variant of Plectasin (SEQ ID NO: 1) (GFGCSGPWAEDDMQCHNHCKSIKGYRGGYCAKGGFVCKCY) | 3 (<50% of Plectasin wildtype MIC)
N5S + D9S + M13L + Q14R + N17V + A31S: variant of Plectasin (SEQ ID NO: 1) (GFGCSGPWSEDDLRCHVHCKSIKGYKGGYCSKGGFVCKCY) | 3 (<50% of Plectasin wildtype MIC)
N5S + D9S + M13V + N17R: variant of Plectasin (SEQ ID NO: 1) (GFGCSGPWSEDDVQCHRHCKSIKGYKGGYCAKGGFVCKCY) | 3 (<50% of Plectasin wildtype MIC)
N5S + D9S: variant of Plectasin (SEQ ID NO: 1) (GFGCSGPWSEDDMQCHNHCKSIKGYKGGYCAKGGFVCKCY) | 3 (<50% of Plectasin wildtype MIC)

What follows are substances tested on Staphylococcus aureus, MRSA ST5 (2001) (assay: MIC, NCCLS/CLSI guidelines (Example 5), strain D). Settings: relative to wildtype Plectasin; average of two independent experiments.
Assay type: cell-based
Protocol: as §1, §2, §3, §4

Substance | Relative MIC, strain D
N5G + M13L: variant of Plectasin (SEQ ID NO: 1) (GFGCGGPWDEDDLQCHNHCKSIKGYKGGYCAKGGFVCKCY) | 3 (<50% of Plectasin wildtype MIC)
N5G + M13Y + N17K: variant of Plectasin (SEQ ID NO: 1) (GFGCGGPWDEDDYQCHKHCKSIKGYKGGYCAKGGFVCKCY) | 3 (<50% of Plectasin wildtype MIC)
N5G + Q14K: variant of Plectasin (SEQ ID NO: 1) (GFGCGGPWDEDDMKCHNHCKSIKGYKGGYCAKGGFVCKCY) | 0 (>100% of Plectasin wildtype MIC)
N5R + M13Y + N17R: variant of Plectasin (SEQ ID NO: 1) (GFGCRGPWDEDDYQCHRHCKSIKGYKGGYCAKGGFVCKCY) | 3 (<50% of Plectasin wildtype MIC)
N5S + D9A + K26R: variant of Plectasin (SEQ ID NO: 1) (GFGCSGPWAEDDMQCHNHCKSIKGYRGGYCAKGGFVCKCY) | 3 (<50% of Plectasin wildtype MIC)
N5S + D9S + M13L + Q14R + N17V + A31S: variant of Plectasin (SEQ ID NO: 1) (GFGCSGPWSEDDLRCHVHCKSIKGYKGGYCSKGGFVCKCY) | 3 (<50% of Plectasin wildtype MIC)
N5S + D9S + M13V + N17R: variant of Plectasin (SEQ ID NO: 1) (GFGCSGPWSEDDVQCHRHCKSIKGYKGGYCAKGGFVCKCY) | 3 (<50% of Plectasin wildtype MIC)
N5S + D9S: variant of Plectasin (SEQ ID NO: 1) (GFGCSGPWSEDDMQCHNHCKSIKGYKGGYCAKGGFVCKCY) | 2 (50-80% of Plectasin wildtype MIC)

These substances were tested on Staphylococcus aureus, MRSA ST80 (2003) (assay: MIC, NCCLS/CLSI guidelines (Example 5), strain E). Settings: relative to wildtype Plectasin; average of two independent experiments.
Assay type: cell-based
Protocol: as §1, §2, §3, §4

Substance | Relative MIC, strain E
N5G + M13L: variant of Plectasin (SEQ ID NO: 1) (GFGCGGPWDEDDLQCHNHCKSIKGYKGGYCAKGGFVCKCY) | 3 (<50% of Plectasin wildtype MIC)
N5G + M13Y + N17K: variant of Plectasin (SEQ ID NO: 1) (GFGCGGPWDEDDYQCHKHCKSIKGYKGGYCAKGGFVCKCY) | 2 (50-80% of Plectasin wildtype MIC)
N5G + Q14K: variant of Plectasin (SEQ ID NO: 1) (GFGCGGPWDEDDMKCHNHCKSIKGYKGGYCAKGGFVCKCY) | 2 (50-80% of Plectasin wildtype MIC)
N5R + M13Y + N17R: variant of Plectasin (SEQ ID NO: 1) (GFGCRGPWDEDDYQCHRHCKSIKGYKGGYCAKGGFVCKCY) | 3 (<50% of Plectasin wildtype MIC)
N5S + D9A + K26R: variant of Plectasin (SEQ ID NO: 1) (GFGCSGPWAEDDMQCHNHCKSIKGYRGGYCAKGGFVCKCY) | 3 (<50% of Plectasin wildtype MIC)
N5S + D9S + M13L + Q14R + N17V + A31S: variant of Plectasin (SEQ ID NO: 1) (GFGCSGPWSEDDLRCHVHCKSIKGYKGGYCSKGGFVCKCY) | 3 (<50% of Plectasin wildtype MIC)
N5S + D9S + M13V + N17R: variant of Plectasin (SEQ ID NO: 1) (GFGCSGPWSEDDVQCHRHCKSIKGYKGGYCAKGGFVCKCY) | 3 (<50% of Plectasin wildtype MIC)
N5S + D9S: variant of Plectasin (SEQ ID NO: 1) (GFGCSGPWSEDDMQCHNHCKSIKGYKGGYCAKGGFVCKCY) | 3 (<50% of Plectasin wildtype MIC)

Each substance was assayed on panel of 6 different strains of Staphylococcus aureus (assay: Average MIC, NCCLS/CLSI guidelines using caMHB (Example 6)). Settings: average over 6 S. aureus strains, duplicate; MIC above 32 counted as 64; read after 18-24 hours at 37° C.
Assay type: cell-based
Protocol: A large number of antimicrobial peptides of the invention were tested against a panel of 6 different strains of Staphylococcus aureus listed below:
Staphylococcus aureus, ATCC29213, MSSA, NCCLS reference strain; Staphylococcus aureus, ATCC25923, MSSA, NCCLS reference strain; Staphylococcus aureus, ATCC29737, MSSA; Staphylococcus aureus, E33235, MSSA; Staphylococcus aureus, 698-01, MRSA ST5, Str, Kan, Oxa; Staphylococcus aureus, 566-03, MRSA ST80, Oxa, Tet, Fus, Kan.
The staphylococci were exposed to the following peptide concentrations: 32; 16; 8; 4; 2; 1; 0.5; 0.25; 0.13; […]; and 0.03 microgram/mL. All peptides were purified, HPLC quantified and the concentrated peptides (>160 micrograms/mL) were diluted to 160 micrograms/mL in peptide dilution buffer (0.1% BSA, 0.01% Acetic Acid).
The MIC determination was done essentially as described by NCCLS/CLSI guidelines using caMHB. The MICs were read after 18-24 hours of 37° C. incubations and recorded along with the CFU in the table below.
A total number of 95 antimicrobial peptides of the invention were evaluated in duplicate against the 6 bacterial strains described above.
In the majority of the double determinations (93%), the MIC varied <2 fold. An average MIC is tabulated below. If the MIC was above 32 micrograms/mL, a value of 64 was used to calculate the average.

Substance | Average MIC [micrograms/mL]
N5G + M13L: variant of Plectasin (SEQ ID NO: 1) (GFGCGGPWDEDDLQCHNHCKSIKGYKGGYCAKGGFVCKCY) | 4
N5G + M13Y + N17K: variant of Plectasin (SEQ ID NO: 1) (GFGCGGPWDEDDYQCHKHCKSIKGYKGGYCAKGGFVCKCY) | 5
N5G + Q14K: variant of Plectasin (SEQ ID NO: 1) (GFGCGGPWDEDDMKCHNHCKSIKGYKGGYCAKGGFVCKCY) | 9
N5R + M13Y + N17R: variant of Plectasin (SEQ ID NO: 1) (GFGCRGPWDEDDYQCHRHCKSIKGYKGGYCAKGGFVCKCY) | 1
N5S + D9A + K26R: variant of Plectasin (SEQ ID NO: 1) (GFGCSGPWAEDDMQCHNHCKSIKGYRGGYCAKGGFVCKCY) | 3
N5S + D9S + M13L + Q14R + N17V + A31S: variant of Plectasin (SEQ ID NO: 1) (GFGCSGPWSEDDLRCHVHCKSIKGYKGGYCSKGGFVCKCY) | 2
N5S + D9S + M13V + N17R: variant of Plectasin (SEQ ID NO: 1) (GFGCSGPWSEDDVQCHRHCKSIKGYKGGYCAKGGFVCKCY) | 2
N5S + D9S: variant of Plectasin (SEQ ID NO: 1) (GFGCSGPWSEDDMQCHNHCKSIKGYKGGYCAKGGFVCKCY) | 6
